Laboratory results as given in patent US10881642B2, “Autophagy enhancer and use thereof” (Industry-Academic Cooperation Foundation, Yonsei University, priority 2016, dated 2021).

Key:
calcineurin = experiment: Calcineurin phosphatase activity assay; type: cell-based; settings: lysates of Hepa1c1c7 cells
HFD-fed C57BL/6 mice = experiment: Metabolic profile of HFD-fed mice (diet-induced obesity); type: in vivo; settings: for non-fasting blood glucose level: 50 mg/kg 3 times a week
Description: FIG. 12 indicates the improvement of the metabolic profile of HFD-feed mice by MSL-7: (FIG. 12A) Confocal microscopic result of HeLa cells transfected with tandem mRFP-GFP-LC3 and treated with MSL-7 in which red puncta indicates autophagolysosome. (FIG. 12B, 12C) 8 week old male C57BL/6 mice were fed with HFD or normal chow diet (NCD) for 8 weeks, and then 50 mg/kg MSL-7 was administered three times a week for 8 weeks. Non-fasting glucose level (FIG. 12B) and body weight (FIG. 12C) were monitored. (FIG. 12D) IPGTT. (FIG. 12E) AUC curve of (FIG. 12D). (FIG. 12F) ITT. (FIG. 12G) AUC curve of (FIG. 12F).
Screening of autophagy enhancer. […] Luciferase assay. Firefly and Renilla luciferase assays were conducted using the Dual-Luciferase Reporter Assay System (Promega) according to the manufacturer's recommendation. In brief, cells were lysed in 1× lysis buffer and subjected to a single round of freezing/thawing. Firefly luciferase was determined after mixing 5 μl of lysate with 25 μl of Luciferase Assay Reagent II. Renilla luciferase was then determined after further addition of 20 ul of Stop&Glo Reagent. Cell culture and media and drugs treatment. HeLa, TFEB-GFP-HeLa, SK-HEP1 (hepatoma cell line) and Hepa1c1c7 (hepatoma cell line) cells were cultured in the following media: (normal) Dulbecco's modified Eagle's medium (DMEM, Sigma-Aldrich) supplemented with 10% FBS and 1% penicillin/streptomycin; (starvation) HBSS media with Ca and Mg supplemented with 10 mM HEPES; Drugs treatment: MSL compound (50-100 μM); Rapamycin ([…]); Torin-1 (1 μM); Bafilomycin (100 nM); Cyclosporin A (10 μM); and FK506 (5 μM). Cells were treated with oleic acid (400 μM) and palmitic acid (400 μM) for 24 h. Where indicated, cells were washed off with HBSS and replaced by DMEM with or without MSL for 16 h. INS-1 cells, a insulinoma cell line of […] were cultured as described previously (Kim et al., 2014 ibid) in the presence or absence of bafilomycin and treated with MSL-7. Lactate dehydrogenase (LDH) assay. Cytotoxicity was determined by the measurement of LDH release in cell culture media using the LDH kit (Roche), according to the protocol from the manufacturer. Transfection and plasmids. Cells were transiently transfected with DNA plasmids 3×FLAG-hTFEB (A Ballabio), FYVE-dsRed (Cantley LC), RFP-LC3 or mRFP-GFP-LC3 using lipofectamine 2000 (Invitrogen) according to the protocol from the manufacturer. INS-1 cells were transfected with prepro-mIAPP-HA or prepro-hIAPP-HA using jetPEIDNA according to the manufacturer's protocol. Imaging and image quantification. Imaging was performed with a ×40 objective on an LSM780 confocal microscope (Zeiss). Image analysis (spot count per cell) was performed using Image J. When indicated, cells were stained for lipid droplets with BODIPY 493/503 (Invitrogen, […], 20 min) according to the manufacturer's methods. Formation of acidic vesicular organelles was quantitated by staining the cells with acridine orange (Invitrogen, 5 ug/ml, 10 min). Antibodies and western blotting. Cells or tissues were solubilized in lysis buffer supplemented with protease and phosphatase inhibitors and protein concentration was measured by the Bradford method. Ten to 30 micrograms were loaded on 4-12% Bis-Tris gel (NUPAGE, Invitrogen) or 8-15% SDS-PAGE, transferred to PVDF membranes and analyzed by western blot using the ECL method (Pierce). The following antibodies were used: LC3 (Novus NB100-2331, 1:1,000), p62 (Progen GP62-C, 1:1,000), b-actin (Santa Cruz sc-47778, 1:5,000), FLAG (Sigma-Aldrich F1804, 1:2,000), 70S6K (Cell Signaling 9202S, 1:1000), p-70S6K (Cell Signaling 9206S, 1:1000), mTOR (Cell Signaling 2983, 1:1000), pmTOR (Cell Signaling 2971S, 1:1000), TFEB (Cell Signaling 4240, 1:1000). Protein levels were quantified by using ImageJ software analysis. RNA extraction, RT and real-time RT-PCR. […]

Row | Structure (SMILES) | calcineurin activity (calcineurin) | non-fasting blood glucose level (HFD-fed C57BL/6 mice; HFD, 8 weeks) | area under the curves (AUCs) of IPGTT and ITT (HFD-fed C57BL/6 mice; HFD, 8 weeks) | body weight (HFD-fed C57BL/6 mice; HFD, 8 weeks) | glucose tolerance / glucose intolerance (IPGTT) (HFD-fed C57BL/6 mice; HFD, 8 weeks) | insulin sensitivity (ITT) (HFD-fed C57BL/6 mice; HFD, 8 weeks) | glucose profile of lean or chow-fed mice (HFD-fed C57BL/6 mice; lean or chow-fed mice)
1 | COc1oc(-c2ccccc2Cl)nc1S(=O)(=O)c1ccccc1 [MSL-7, 2-(2-chlorophenyl)-5-methoxy-4-(phenylsulfonyl) oxazole] | calcineurin activation in a dose-dependent manner | significantly reduced | reduced | without changing the body weight | significantly improved | significantly improved | does not affect
2 | CSc1oc(-c2ccccc2)nc1S(=O)(=O)c1ccc(F)cc1 [MSL] | significantly increased | reduced non-fasting blood glucose level and glucose intolerance in mice fed high-fat diet (HFD). however, statistical significance was not achieved for most comparisons | – | – | reduced non-fasting blood glucose level and glucose intolerance in mice fed high-fat diet (HFD). however, statistical significance was not achieved for most comparisons | – | –
